{"source": "patent US20080207640A1", "about": "“Method of treating cell proliferative disorders using growth hormone secretagogues” (Sapphire Therapeutics, priority 2007, published 2008)", "type_in_all_cases": "in vivo, human", "key": {"[1]": {"test": "Example 3 cancer cachexia: lean body mass and total body mass by DEXA, subjects of Example 1", "conditions": "FIG. 11", "description": "(§1) The placebo controlled, randomized studies described above were used to investigate the ability of growth hormone secretagogues to treat subjects having cancer cachexia.\n(§2) Total body mass and lean body mass were measured for subjects described in Example 1 (see FIGS. 10, and 11, respectively.) Lean body mass and total body mass were measured by dual-energy x-ray absorptiometry (DEXA). Total body weight was measured for subjects described in Example 2 (see, FIG. 12)."}, "IGF-1 [2]": {"tested_on": "IGF-1", "test": "Example 2 second double blind, placebo controlled, randomized study: serum IGF-1", "conditions": "for IGF-1: serum", "description": "(§3) A second double blind, placebo controlled, randomized study was designed to investigate the ability of growth hormone secretagogues to be used for the treatment of cell proliferative disorders.\n(§4) Subjects were separated into groups and administered a placebo or RC-1291 (Formula III). Each group was administered the appropriate number of capsules. The capsules were microcrystalline cellulose, magnesium stearate and RC-1291 HCl (25 mg) in a hard gelatin capsule. The placebo capsule was microcrystalline cellulose in a hard gelatin capsule. The RC-1291 groups received 50 mg or 100 mg of RC-1291 daily.\n(§5) Serum was obtained at office visits, clearly labeled, and stored frozen at −20° C. prior to shipment on dry ice to CRL, Lenexa, Kans. for analysis. Samples were assayed for IGF-1 and IGFBP-3."}, "[3]": {"test": "Example 3 cancer cachexia: total body weight, subjects of Example 2", "conditions": "50 and 100 mg, FIG. 12", "description": "as §1, §2"}, "IGF-1 [4]": {"tested_on": "IGF-1", "test": "Example 1 double blind, placebo controlled, randomized study: IGF-1 levels", "description": "(§6) A double blind, placebo controlled, randomized study was designed to investigate the ability of growth hormone secretagogues to be used for the treatment of cell proliferative disorders.\n(§7) Subjects were separated in to two groups: the placebo group and the RC-1291 group. The RC-1291 group received 50 mg of RC-1291 in two 25 mg capsules daily. The capsules were microcrystalline cellulose, magnesium stearate and RC-1291 HCl (25 mg) in a hard gelatin capsule. The placebo group received two placebo capsules daily. The placebo capsule was microcrystalline cellulose in a hard gelatin capsule.\n(§8) One hour before breakfast subjects were administered the two capsules after fasting during the night.\n(§9) At various points over the course of the three month study, levels of IGFBP-3 and IGF-1 were measured in both the placebo and RC-1291 groups."}, "IGFBP-3 [5]": {"tested_on": "IGFBP-3", "test": "Example 2 second double blind, placebo controlled, randomized study: serum IGFBP-3", "conditions": "for IGFBP-3: serum", "description": "as §3, §4, §5"}, "IGFBP-3 [6]": {"tested_on": "IGFBP-3", "test": "Example 1 double blind, placebo controlled, randomized study: IGFBP-3 levels", "description": "as §6, §7, §8, §9"}, "[7]": {"conditions": "Example 2, 50 mg or 100 mg daily, vs placebo"}, "[8]": {"conditions": "50 mg RC-1291 daily, capsules, at 4 weeks, N = 32"}, "[9]": {"conditions": "50 mg RC-1291 daily, capsules, at 8 weeks, N = 32"}, "[10]": {"conditions": "50 mg RC-1291 daily, capsules, at 12 weeks, N = 32"}, "[11]": {"conditions": "Example 1, 50 mg daily, vs placebo"}}, "note": "“And” between values parts separate entries of the source, which are not always exact repeats. Equal entries are not always repeated."}
{"compound": "CN(C)N(C)C(=O)[C@@]1(Cc2ccccc2)CCCN(C(=O)[C@@H](Cc2c[nH]c3ccccc23)NC(=O)C(C)(C)N)C1", "note": "[RC-1291]", "values": [{"measurement": "change in lean body mass (in words)", "setting": "[1]", "result": "gained lean body mass and total body weight"}, {"measurement": "IGF-1", "setting": "IGF-1 [2]; 50 mg daily, week 1", "result": "40.69 ng/mL and 5.32 nM"}, {"measurement": "IGF-1", "setting": "IGF-1 [2]; 50 mg daily, week 2", "result": "57 ng/mL and 7.45 nM"}, {"measurement": "IGF-1", "setting": "IGF-1 [2]; 50 mg daily, week 4", "result": "46.5 ng/mL and 6.08 nM"}, {"measurement": "IGF-1", "setting": "IGF-1 [2]; 100 mg daily, week 1", "result": "80.25 ng/mL and 10.49 nM"}, {"measurement": "IGF-1", "setting": "IGF-1 [2]; 100 mg daily, week 2", "result": "76.25 ng/mL and 9.97 nM"}, {"measurement": "IGF-1", "setting": "IGF-1 [2]; 100 mg daily, week 4", "result": "73.4 ng/mL and 9.60 nM"}, {"measurement": "levels of IGF-1 (in words)", "setting": "IGF-1 [2]; [7]", "result": "raised the levels of both IGFBP-3 and IGF-1 in a statistically significant manner"}, {"measurement": "change in total body weight (in words)", "setting": "[3]", "result": "gained lean body mass and total body weight"}, {"measurement": "IGF-1 change from baseline (nM) At 4 weeks", "setting": "IGF-1 [4]; [8]", "result": 6.626, "unit": "nM"}, {"measurement": "IGF-1 change from baseline (nM) At 8 weeks", "setting": "IGF-1 [4]; [9]", "result": 4.729, "unit": "nM"}, {"measurement": "IGF-1 change from baseline (nM) At 12 weeks", "setting": "IGF-1 [4]; [10]", "result": 5.046, "unit": "nM"}, {"measurement": "levels of IGF-1 (in words)", "setting": "IGF-1 [4]; [11]", "result": "raises the levels of both IGFBP-3 and IGF-1 in a statistically significant manner"}, {"measurement": "IGFBP-3", "setting": "IGFBP-3 [5]; 50 mg daily, week 1", "result": "580 ng/mL and 20.19 nM"}, {"measurement": "IGFBP-3", "setting": "IGFBP-3 [5]; 50 mg daily, week 2", "result": "540 ng/mL and 18.79 nM"}, {"measurement": "IGFBP-3", "setting": "IGFBP-3 [5]; 50 mg daily, week 4", "result": "610 ng/mL and 21.23 nM"}, {"measurement": "IGFBP-3", "setting": "IGFBP-3 [5]; 100 mg daily, week 1", "result": "900 ng/mL and 31.32 nM"}, {"measurement": "IGFBP-3", "setting": "IGFBP-3 [5]; 100 mg daily, week 2", "result": "670 ng/mL and 23.32 nM"}, {"measurement": "IGFBP-3", "setting": "IGFBP-3 [5]; 100 mg daily, week 4", "result": "970 ng/mL and 33.76 nM"}, {"measurement": "levels of IGFBP-3 (in words)", "setting": "IGFBP-3 [5]; [7]", "result": "raised the levels of both IGFBP-3 and IGF-1 in a statistically significant manner"}, {"measurement": "IGFBP-3 change from baseline (nM) At 4 weeks", "setting": "IGFBP-3 [6]; [8]", "result": 26.89, "unit": "nM"}, {"measurement": "IGFBP-3 change from baseline (nM) At 8 weeks", "setting": "IGFBP-3 [6]; [9]", "result": 17.7, "unit": "nM"}, {"measurement": "IGFBP-3 change from baseline (nM) At 12 weeks", "setting": "IGFBP-3 [6]; [10]", "result": 20.66, "unit": "nM"}, {"measurement": "effects on IGFBP-3 relative to effects on IGF-1, on a molar basis", "setting": "IGFBP-3 [6]; Example 1, 50 mg daily", "result": "greater than 3 fold"}, {"measurement": "levels of IGFBP-3 (in words)", "setting": "IGFBP-3 [6]; [11]", "result": "raises the levels of both IGFBP-3 and IGF-1 in a statistically significant manner"}]}
